Measurements: paper PMC11963566, “A phase I, single-center, randomized, open-label, three-period crossover study to evaluate the drug–drug interaction between ZSP1273 and oseltamivir in healthy Chinese subjects” (Antimicrobial Agents and Chemotherapy, 2025)
Where two headings read alike, the source gives them in different places.

Assays:
clinical = settings: human; for AUC(0-inf): AUC0-∞,ss
[1] = Safety assessment: adverse events (CTCAE 5.0, MedDRA 23.1) in healthy subjects; format: in vivo, human
Protocol: Safety assessment was conducted from the first administration of the investigational drug until the end of the trial. Safety indicators included adverse events (AEs), serious adverse events (SAEs), clinical laboratory tests (hematology, biochemistry, and urinalysis), vital signs, physical examination, and 12-lead electrocardiogram.
The severity of AE was assessed according to the CTCAE 5.0 standard and includes grades 1 to 5. Based on the criteria for determining causality between drugs and adverse events, the relationship was classified into five levels: definitely related, probably related, possibly related, probably not related, definitely not related. Among them, definitely related, probably related, and possibly related are defined as drug-related AEs.
Adverse events were coded using Med DRA 23.1 Chinese ([30]) and analyzed based on system organ class (SOC) and preferred term (PT). Adverse events during the treatment period, drug-related adverse events, and serious adverse events were described by frequency, number of cases (n), and incidence rate (%) according to SOC, PT, and the highest severity classification.

[2] = subjects with AUC_%Extrap >20.0% or Rsq <0.800 excluded
[3] = SOC Gastrointestinal disorders, probably related
[4] = SOC General disorders and administration site conditions, possibly related
[5] = SOC Infections and infestations, probably not related
[6] = SOC Investigations, possibly related
[7] = SOC Investigations, probably not related
[8] = SOC Skin and subcutaneous tissue disorders, possibly related
[9] = healthy subjects, 5 days dosing

Compound: CCOC(=O)C1=C[C@@H](OC(CC)CC)[C@H](NC(C)=O)[C@@H](N)C1 [Oseltamivir, oseltamivir]
- AUC(0-t) (clinical; in vivo, AUC0-t,ss, geometric mean): 0.17 µg·h/mL
- AUC (clinical; in vivo, AUC0-τ,ss, geometric mean): 0.167 µg·h/mL
- AUC(0-inf) (clinical; in vivo, geometric mean): 0.175 µg·h/mL
- AUC(0-inf) (clinical; in vivo, geometric mean, monotherapy, subjects with AUC_%Extrap >20.0% or Rsq <0.800 excluded): 0.175 µg·h/mL
- Cmax (clinical; in vivo, Cmax,ss, geometric mean): 0.0912 µg/mL
- Tmax (clinical; in vivo, po, Tmax,ss): 0.5 h
- Vd/F (clinical; in vivo, po, Vz/F): 3070 L
- half-life (clinical; in vivo, po, t1/2,ss): 4.5 ± 4.8 h
- AUC(0-inf) (clinical; plasma, oral, geometric mean, co-administration ZSP1273 + oseltamivir, plasma, day 5, all subjects): 0.163 µg·h/mL
- k el (clinical; plasma, po, 75 mg): 7.78e-05 s⁻¹
- AUC0-t,ss, geometric mean ratio co-administration/monotherapy (human, in vivo): 92.7%
- AUC0-τ,ss, geometric mean ratio co-administration/monotherapy (human, in vivo): 92.2%
- AUC0-∞,ss, geometric mean ratio co-administration/monotherapy (human, in vivo): 92.6%
- AUC0-∞,ss, intra-individual coefficient of variation (human, in vivo): 11.8%
- Cmax,ss, geometric mean ratio co-administration/monotherapy (human, in vivo): 60.1%
- decrease in Cmax,ss after co-administration (human, in vivo): 39.9%
- CLss/F (human, in vivo, po): 459.8 ± 106.3 (23.1%) L/h
- AUC0-∞,ss, geometric mean ratio co-administration/monotherapy [2]: 93.5%
- AUC0-∞,ss, intra-individual coefficient of variation [2]: 10.7%
- Gastrointestinal disorders (SOC): Cases (%) ([1]; AE by system organ class): 0 Cases (%)
- Gastrointestinal disorders (SOC): Occurrences ([1]; AE by system organ class): 0
- General disorders and administration site conditions (SOC): Cases (%) ([1]; AE by system organ class): 0 Cases (%)
- General disorders and administration site conditions (SOC): Occurrences ([1]; AE by system organ class): 0
- Infections and infestations (SOC): Cases (%) ([1]; AE by system organ class): 1 (2.9) Cases (%)
- Infections and infestations (SOC): Occurrences ([1]; AE by system organ class): 1
- Investigations (SOC): Cases (%) ([1]; AE by system organ class): 6 (17.6) Cases (%)
- Investigations (SOC): Occurrences ([1]; AE by system organ class): 12
- Skin and subcutaneous tissue disorders (SOC): Cases (%) ([1]; AE by system organ class): 1 (2.9) Cases (%)
- Skin and subcutaneous tissue disorders (SOC): Occurrences ([1]; AE by system organ class): 1
- Diarrhea: Cases (%) [1, 3]: 0 Cases (%)
- Diarrhea: Occurrences [1, 3]: 0
- Fever: Cases (%) [1, 4]: 0 Cases (%)
- Fever: Occurrences [1, 4]: 0
- Upper respiratory tract infection (URTI): Cases (%) [1, 5]: 1 (2.9) Cases (%)
- Upper respiratory tract infection (URTI): Occurrences [1, 5]: 1
- Decreased blood triglycerides: Cases (%) [1, 6]: 1 (2.9) Cases (%)
- Decreased blood triglycerides: Occurrences [1, 6]: 1
- Decreased high-density lipoprotein (HDL): Cases (%) [1, 6]: 2 (5.9) Cases (%)
- Decreased high-density lipoprotein (HDL): Occurrences [1, 6]: 2
- Decreased neutrophil count: Cases (%) [1, 6]: 0 Cases (%)
- Decreased neutrophil count: Occurrences [1, 6]: 0
- Increased blood cholesterol: Cases (%) [1, 6]: 0 Cases (%)
- Increased blood cholesterol: Occurrences [1, 6]: 0
- Increased blood creatinine: Cases (%) [1, 6]: 0 Cases (%)
- Increased blood creatinine: Occurrences [1, 6]: 0
- Increased blood triglycerides: Cases (%) [1, 6]: 1 (2.9) Cases (%)
- Increased blood triglycerides: Occurrences [1, 6]: 1
- Increased blood uric acid: Cases (%) [1, 6]: 1 (2.9) Cases (%)
- Increased blood uric acid: Occurrences [1, 6]: 1
- Increased gamma-glutamyl transferase (GGT): Cases (%) [1, 6]: 0 Cases (%)
- Increased gamma-glutamyl transferase (GGT): Occurrences [1, 6]: 0
- Increased lipase: Cases (%) [1, 6]: 0 Cases (%)
- Increased lipase: Occurrences [1, 6]: 0
- Increased low-density lipoprotein (LDL): Cases (%) [1, 6]: 0 Cases (%)
- Increased low-density lipoprotein (LDL): Occurrences [1, 6]: 0
- Crystals present in urine: Cases (%) [1, 7]: 1 (2.9) Cases (%)
- Crystals present in urine: Occurrences [1, 7]: 1
- Decreased hemoglobin: Cases (%) [1, 7]: 2 (5.9) Cases (%)
- Decreased hemoglobin: Occurrences [1, 7]: 2
- Increased urine specific gravity: Cases (%) [1, 7]: 1 (2.9) Cases (%)
- Increased urine specific gravity: Occurrences [1, 7]: 1
- Nitrites present in urine: Cases (%) [1, 7]: 1 (2.9) Cases (%)
- Nitrites present in urine: Occurrences [1, 7]: 1
- Positive urine occult blood: Cases (%) [1, 7]: 1 (2.9) Cases (%)
- Positive urine occult blood: Occurrences [1, 7]: 1
- Protein detected in urine: Cases (%) [1, 7]: 1 (2.9) Cases (%)
- Protein detected in urine: Occurrences [1, 7]: 1
- Acneiform dermatitis: Cases (%) [1, 8]: 1 (2.9) Cases (%)
- Acneiform dermatitis: Occurrences [1, 8]: 1
- Maculopapular rash: Cases (%) [1, 8]: 0 Cases (%)
- Maculopapular rash: Occurrences [1, 8]: 0
- increased blood triglycerides, incidence ([1]; drug-related adverse event): 2.9%
- At least one treatment-emergent adverse event (TEAE): Cases (%) [1, 9]: 7 (20.6) Cases (%)
- At least one treatment-emergent adverse event (TEAE): Occurrences [1, 9]: 14
- At least one treatment-emergent adverse event related to drugs: Cases (%) [1, 9]: 5 (14.7) Cases (%)
- At least one treatment-emergent adverse event related to drugs: Occurrences [1, 9]: 6
